Assay results taken from the supplement of paper PMC11061612.

Key:
Assay in all cases: combination Emax (second highest fraction inhibited in the dose matrix, 72 h); higher = more inhibition; extreme values may be limits of the assay
[1] = tested on: KMOE-2 (Acute Myeloid Leukemia)
Method in brief: (§1)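 Bliss excess equals the observed combination effect minus the expected value EA + EB − EA·EB, where EA and EB are the effects of each agent alone. Combination Emax is the second-highest inhibition within the matrix. Inhibition was scaled from CellTiter-Glo 2.0 luminescence, with 0 set by vehicle wells and 1 by blank wells, after 72 hours of two-drug dosing of cells plated in 1536-well plates.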

[2] = tested on: TK10 (Kidney Carcinoma)
Method in brief: as §1

[3] = tested on: SW13 (Other Solid Carcinomas)
Method in brief: as §1

[4] = tested on: MIA-PaCa-2 (Pancreatic Carcinoma)
Method in brief: as §1

[5] = tested on: NB69 (Neuroblastoma)
Method in brief: as §1

[6] = tested on: PWR-1E (Non-Cancerous)
Method in brief: as §1

[7] = tested on: NCI-H727 (Other Solid Carcinomas)
Method in brief: as §1

[8] = tested on: C-4-I (Cervical Carcinoma)
Method in brief: as §1

[9] = tested on: EW-24 (Ewing's Sarcoma)
Method in brief: as §1

[10] = tested on: Caov-4 (Ovarian Carcinoma)
Method in brief: as §1

[11] = tested on: NUGC-3 (Gastric Carcinoma)
Method in brief: as §1

[12] = tested on: ACHN (Kidney Carcinoma)
Method in brief: as §1

[13] = tested on: VA-ES-BJ (Other Solid Carcinomas)
Method in brief: as §1

[14] = tested on: EFM-19 (Breast Carcinoma)
Method in brief: as §1

[15] = tested on: NCI-H358 (Lung Adenocarcinoma)
Method in brief: as §1

[16] = tested on: KYSE-450 (Esophageal Squamous Cell Carcinoma)
Method in brief: as §1

[17] = tested on: OE19 (Esophageal Adenocarcinoma)
Method in brief: as §1

[18] = tested on: UACC-62 (Melanoma)
Method in brief: as §1

[19] = tested on: RF-48 (B-Cell Non-Hodgkin's Lymphoma)
Method in brief: as §1

[20] = tested on: OSC-20 (Oral Cavity Carcinoma)
Method in brief: as §1

Structure (SMILES)	combination Emax [1]	combination Emax [2]	combination Emax [3]	combination Emax [4]	combination Emax [5]	combination Emax [6]	combination Emax [7]	combination Emax [8]	combination Emax [9]	combination Emax [10]	combination Emax [11]	combination Emax [12]	combination Emax [13]	combination Emax [14]	combination Emax [15]	combination Emax [16]	combination Emax [17]	combination Emax [18]	combination Emax [19]	combination Emax [20]
NC1(C(=O)N[C@@H](CCO)c2ccc(Cl)cc2)CCN(c2ncnc3[nH]ccc23)CC1 [Capivasertib] + CC(=O)c1c(C)c2cnc(Nc3ccc(N4CCNCC4)cn3)nc2n(C2CCCC2)c1=O [Palbociclib] (first compound max 10 µM, 7x7, partner max 10 µM)	0.541	0.516	0.261	0.451	0.726	0.535	0.507	0.519	0.495	0.377	0.592	0.658	0.458	0.481	0.436	0.351	0.523	0.492	0.42	0.279
NC1(C(=O)N[C@@H](CCO)c2ccc(Cl)cc2)CCN(c2ncnc3[nH]ccc23)CC1 [Capivasertib] + CC(C)n1c(=O)n(C)c2cnc3cc(F)c(-c4ccc(OCCCN5CCCCC5)nc4)cc3c21 [AZD1390] (first compound max 10 µM, 7x7, partner max 0.3 µM)	0.33	0.411	0.35	0.188	0.341	0.4	0.35	0.237	0.407	0.245	0.339	0.185	0.307	0.469	0.374	0.306	0.346	0.572	0.44	0.256
NC1(C(=O)N[C@@H](CCO)c2ccc(Cl)cc2)CCN(c2ncnc3[nH]ccc23)CC1 [Capivasertib] + CCN(CCO)CCCOc1ccc2c(Nc3cc(CC(=O)Nc4cccc(F)c4)[nH]n3)ncnc2c1 [AZD2811] (first compound max 10 µM, 7x7, partner max 1 µM)	0.489	0.403	0.515	0.418	0.679	0.713	0.418	0.402	0.659	0.383	0.448	0.355	0.49	0.586	0.394	0.414	0.847	0.556	0.534	0.387
NC1(C(=O)N[C@@H](CCO)c2ccc(Cl)cc2)CCN(c2ncnc3[nH]ccc23)CC1 [Capivasertib] + COc1nnc2ccc(N3CCC(c4ccc(OCCN5CCN(C)C(=O)[C@H]5C)cc4)CC3)nn12 [AZD5153] (first compound max 10 µM, 7x7, partner max 1 µM)	0.831	0.63	0.389	0.813	0.91	0.861	0.434	0.749	0.756	0.526	0.617	0.672	0.487	0.538	0.585	0.324	0.656	0.56	0.474	0.296
NC1(C(=O)N[C@@H](CCO)c2ccc(Cl)cc2)CCN(c2ncnc3[nH]ccc23)CC1 [Capivasertib] + C[C@@H]1COCCN1C2=NC(=NC(=C2)C3(CC3)[S@](=N)(=O)C)C4=C5C=CNC5=NC=C4 [AZD6738] (first compound max 10 µM, 7x7, partner max 10 µM)	0.618	0.605	0.712	0.542	0.849	0.947	0.58	0.913	0.786	0.825	0.74	0.856	0.729	0.526	0.554	0.452	0.698	0.568	0.627	0.431
NC1(C(=O)N[C@@H](CCO)c2ccc(Cl)cc2)CCN(c2ncnc3[nH]ccc23)CC1 [Capivasertib] + Cn1cnc2c(F)c(Nc3ccc(Br)cc3Cl)c(C(=O)NOCCO)cc21 [Selumetinib] (first compound max 10 µM, 7x7, partner max 10 µM)	1	0.534	0.65	0.643	0.903	0.486	0.729	0.537	0.485	0.613	0.662	0.49	0.347	0.477	0.585	0.547	0.573	0.908	0.456	0.451
COc1cccc2c1C(=O)c1c(O)c3c(c(O)c1C2=O)C[C@@](O)(C(=O)CO)C[C@@H]3O[C@H]1C[C@H](N)[C@H](O)[C@H](C)O1 [Doxorubicin] + Cc1cc2ncnn2cc1Nc1ncc2c(n1)n(C1CCOCC1)c(=O)n2C [AZD7648] (first compound max 1 µM, 7x7, partner max 10 µM)	0.911	0.773	0.874	0.949	0.91	0.89	0.147	0.971	0.719	0.913	0.907	0.913	0.758	0.437	0.821	0.801	0.514	0.935	0.836	0.563
CS(=O)(=O)CCNCc1ccc(-c2ccc3ncnc(Nc4ccc(OCc5cccc(F)c5)c(Cl)c4)c3c2)o1 [Lapatinib] + C[C@@H](Oc1cc(-c2cnn(C3CCNCC3)c2)cnc1N)c1c(Cl)ccc(F)c1Cl [Crizotinib] (first compound max 10 µM, 7x7, partner max 10 µM)	0.911	0.656	0.9	0.96	0.949	0.928	0.942	0.943	0.9	0.849	0.96	0.781	0.756	0.554	0.926	0.869	1	0.66	0.477	0.795
CC(=O)c1c(C)c2cnc(Nc3ccc(N4CCNCC4)cn3)nc2n(C2CCCC2)c1=O [Palbociclib] + CC1(C)CCC(CN2CCN(c3ccc(C(=O)NS(=O)(=O)c4ccc(NCC5CCOCC5)c([N+](=O)[O-])c4)c(Oc4cnc5[nH]ccc5c4)c3)CC2)=C(c2ccc(Cl)cc2)C1 [Venetoclax] (first compound max 10 µM, 7x7, partner max 1 µM)	0.215	0.3	0.24	0.31	0.762	0.149	0.232	0.0751	0.432	0.18	0.339	0.597	0.257	0.0695	0.337	0.126	0.257	0.0969	0.254	0.0423
CC(=O)c1c(C)c2cnc(Nc3ccc(N4CCNCC4)cn3)nc2n(C2CCCC2)c1=O [Palbociclib] + Cc1c2c(nn1C)CSCc1cc(n(C)n1)CSc1cc(c3ccccc3c1)OCCCc1c(C(=O)O)n(C)c3c-2c(Cl)ccc13 [AZD5991] (first compound max 10 µM, 7x7, partner max 1 µM)	0.65	0.353	0.838	0.447	0.91	0.271	0.311	0.896	0.577	0.602	0.572	0.626	0.283	0.255	0.363	0.263	0.664	0.588	0.298	0.168
CC(=O)c1c(C)c2cnc(Nc3ccc(N4CCNCC4)cn3)nc2n(C2CCCC2)c1=O [Palbociclib] + Cn1cnc2c(F)c(Nc3ccc(Br)cc3Cl)c(C(=O)NOCCO)cc21 [Selumetinib] (first compound max 10 µM, 7x7, partner max 10 µM)	1	0.427	0.444	0.604	0.988	0.142	0.636	0.349	0.318	0.585	0.533	0.606	0.158	0.162	0.524	0.403	0.332	0.764	0.277	0.182
COc1cccc(OCCCN)c1-c1cc(Nc2cnc(C#N)cn2)n[nH]1 [Prexasertib] + C=CCn1c(=O)c2cnc(Nc3ccc(N4CCN(C)CC4)cc3)nc2n1-c1cccc(C(C)(C)O)n1 [AZD1775] (first compound max 1 µM, partner max 1 µM)	0.992	0.661	0.526	0.987	1	0.975	0.701	0.962	0.7	0.98	0.873	0.96	0.804	0.62	0.769	0.999	0.943	0.798	0.786	0.534
COc1cccc(OCCCN)c1-c1cc(Nc2cnc(C#N)cn2)n[nH]1 [Prexasertib] + CCc1c2c(nc3ccc(O)cc13)-c1cc3c(c(=O)n1C2)COC(=O)[C@]3(O)CC [SN-38] (first compound max 1 µM, 7x7, partner max 0.3 µM)	0.999	0.691	0.996	0.999	1	1	0.696	0.999	0.832	1	0.976	0.931	0.914	0.841	0.897	0.996	0.956	0.817	0.804	0.735
